Drawing on article PMC12156997, “Dihydromyricetin May Attenuate Skin Aging as a RAGE Inhibitor” (Nutrients, 2025), this text covers Kd for two compounds.

SMILES strings stand for the structures.

For experiment [1], the target named is T1, RAGE (receptor for advanced glycation end products) (Homo sapiens, UniProt Q15109).
T1 construct: gene AGER
As to the kind of experiment: SPR (Biacore 1S+, CM5 chip, RAGE immobilized, multi-cycle kinetics). In kind it is binding. (In SPR one partner is held on a chip, and binding of the other changes the refractive index at the surface.)

Experiment [2] has as its target T1, RAGE (receptor for advanced glycation end products). As to the kind of experiment: SPR (Biacore 1S+, CM5 chip, RAGE immobilized, multi-cycle kinetics); known RAGE inhibitor as reference. In kind it is binding.

T1 sequence (Q15109 23-344): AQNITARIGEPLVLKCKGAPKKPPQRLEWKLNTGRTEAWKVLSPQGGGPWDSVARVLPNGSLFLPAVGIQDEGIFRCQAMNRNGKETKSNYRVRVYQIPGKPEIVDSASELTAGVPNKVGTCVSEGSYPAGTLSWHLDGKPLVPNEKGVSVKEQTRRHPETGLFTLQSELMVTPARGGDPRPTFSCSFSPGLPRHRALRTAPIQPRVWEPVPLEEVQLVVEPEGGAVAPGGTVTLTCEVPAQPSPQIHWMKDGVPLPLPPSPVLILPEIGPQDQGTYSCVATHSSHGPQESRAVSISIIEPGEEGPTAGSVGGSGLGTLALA

Take `O=C1c2c(O)cc(O)cc2O[C@H](c2cc(O)c(O)c(O)c2)[C@H]1O` [DHM, Dihydromyricetin]: in experiment [1], binding was put at a Kd of 28.7 µM.

In experiment [2], `O=C(c1ccc(Cl)cc1)N(Cc1ccccc1)C1CCCCC1` [FPS-ZM1] yielded a dissociation constant (Kd) of 40.7 µM.

As a reminder, the Kd is the free concentration of one partner at which half of the binding sites on the other are occupied at equilibrium, for simple one-to-one binding.
